Measured values as given in patent US11860166B2 (KOREA INSTITUTE OF SCIENCE AND TECHNOLOGY, priority 2019, dated 2024).

Test system: dopamine receptor D1
Conditions: co-imaging, quinpirole first, then SKF38393, FIG. 5A
Experimental: To minimize a photobleaching phenomenon, the live fluorescence microscope was set. When stimulated with light at a wavelength of 560 nm in the live fluorescence microscope, intensity at a cpRFP fluorescence wavelength of 610 nm was measured.
To induce fluorescence intensity suitable for experiments, 50 msec exposure and ND16 intensity were maintained. The fluorescence cycle was performed for total 10 minutes by measuring cpRFP images for 1 minute using the fluorescence microscope.
The saved images were analyzed using an NIS program (Nikon). cpRFP fluorescence intensity of the entire single cells in the regions of interest (ROI) was analyzed in the NIS program.

With `Oc1cc2c(cc1O)C(c1ccccc1)CNCC2` (stereo not shown) [SKF38393] the “fluorescence of red biosensor DRD1 Red 1.3 on ligand treatment” value was “increase in fluorescence by selective response”.
